The nature of series [1]: Room temperature long-term stability test. The series is classed as physicochemical. As to conditions: for Content / Morphology: 25°C±2°C, 60% RH±5% RH, sealed aluminum plastic bag. The method, then: Test method: A sample of the mangiferin-6-O-calcium salt raw material was sealingly packaged with an aluminum plastic composition bag, placed at 25° C.±2° C. and 60% RH±5% RH conditions, pieces of the sample were taken at the time of 0, 3, 6, 9 and 12 months and the morphology and content thereof were tested.

Series [2] is described as follows: Acceleration test (accelerated stability). The format is physicochemical. As to conditions: for Content / Morphology: 40°C±2°C, 75% RH±5% RH, sealed aluminum plastic bag. The method, then: Test method: A sample of the mangiferin-6-O-calcium salt raw material was sealingly packaged with an aluminum plastic composition bag, placed at 40° C.±2° C. and 75% RH±5% RH conditions, pieces of the sample were taken at the time of 0, 3 and 6 months and the morphology and content thereof were tested.

Series [3] in a line: Physicochemical properties: solubility of the mangiferin-6-O-calcium salt. From the text: The mangiferin-6-O-calcium salt has the following structural formula: […]

Structures can show the parent of a compound that is named as a salt.

As for `O=c1c2cc(O)c(O)cc2oc2cc(O)c(C3OC(CO)C(O)C(O)C3O)c(O)c12` (stereo not drawn) [mangiferin-6-O-calcium salt], the Content in series [1] (batch 140618, 0 month) is recorded as 84.5%; in series [1] (batch 140618, 3 months), 84.5%; in series [1] (batch 140618, 6 months), 84.3%; in series [1] (batch 140618, 9 months), 84.6%; in series [1] (batch 140618, 12 months), 84.2%; in series [2] (batch 140618, 0 month), 84.5%. Further, the Content worked out at 84.5% in series [2] (batch 140618, 3 months) and 84.2% in series [2] (batch 140618, 6 months). Moreover, the Morphology result is “Light yellow-green” in series [1] (batch 140618, 0 month); “Light yellow-green” in series [1] (batch 140618, 3 months); “Light yellow-” in series [1] (batch 140618, 6 months); “Light yellow-” in series [1] (batch 140618, 9 months); “Light yellow-” in series [1] (batch 140618, 12 months); “Light yellow-” in series [2] (batch 140618, 0 month). The Morphology result is given as “Light yellow-” in series [2] (batch 140618, 3 months) and “Light yellow-” in series [2] (batch 140618, 6 months). Besides, the “Stability conclusion, room temperature” value in series [1] (room temperature condition for 12 months) is listed as “stable properties”. Besides, the “Stability conclusion, acceleration test” value in series [2] (acceleration test condition for 6 months) is given as “stable properties”. The “Solubility in diluted hydrochloric acid solution” value in series [3] (diluted hydrochloric acid solution) is “slightly soluble”. Besides, the “Solubility in hot water” value in series [3] (hot water) is reported as “soluble”. The Solubility in water entry in series [3] (water) is “slightly soluble”.

These data come from patent US10538547B2, “Mangiferin-6-O-calcium salt and preparation process thereof” (CHANGZHOU DEZE MEDICAL SCIENCE CO., LTD, priority 2016, dated 2020).
